The results in this text go back to patent publication US8952157B2, “Apoptosis-inducing agents for the treatment of cancer and immune and autoimmune diseases” (AbbVie Inc., priority 2008, dated 2015).

Molecules are shown by their SMILES. Some results are limits rather than exact numbers.

Sequence of GST-Bcl-2 (P10415 whole entry): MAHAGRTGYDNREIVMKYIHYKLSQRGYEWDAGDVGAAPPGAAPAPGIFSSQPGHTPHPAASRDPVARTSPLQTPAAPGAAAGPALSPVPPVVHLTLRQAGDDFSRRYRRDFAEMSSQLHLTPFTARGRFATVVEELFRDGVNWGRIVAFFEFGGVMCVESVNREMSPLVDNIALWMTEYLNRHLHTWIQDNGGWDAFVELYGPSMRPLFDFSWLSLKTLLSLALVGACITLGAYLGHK

The target in this test is GST-Bcl-2 (Homo sapiens (Human), UniProt P10415). As to the kind of experiment: Time Resolved-Fluorescence Resonance Energy Transfer (TR-FRET) Bcl-2 binding assay. The settings on record: GST-Bcl-2 1 nM, F-Bak peptide probe 100 nM, Tb-anti-GST antibody 1 nM; Ki by Wang's equation. In short, it runs like this:
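Ki values derived from TR-FRET displacement of F-Bak peptide from GST-Bcl-2, detected with Tb-labelled anti-GST antibody (ex 340, em 520/495 nm). Compound dilution series started at 50 μM (2× starting concentration); room-temperature incubation 3 hours.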
Background: TR-FRET usually uses a lanthanide donor and a delayed reading to cut background.
`O=C(NS(=O)(=O)c1ccc(NCCCN2CCOCC2)c([N+](=O)[O-])c1)c1ccc(N2CCN(Cc3ccccc3-c3ccc(Cl)cc3)CC2)cc1Oc1cccc(OCc2ccccc2)c1` [Example 93, 2-(3-(benzyloxy)phenoxy)-4-(4-((4′-chloro-1,1′-biphenyl-2-yl)methyl)piperazin-1-yl)-N-((4-((3-morpholin-4-ylpropyl)amino)-3-nitrophenyl)sulfonyl)benzamide] showed an inhibition constant (Ki) of 16.8 nM. As for `O=C(NS(=O)(=O)c1ccc(NCC2CCOCC2)c([N+](=O)[O-])c1)c1ccc(N2CCN(Cc3ccccc3-c3ccc(Cl)cc3)CC2)cc1Oc1ccc(OCCN2CCOCC2)cc1` [Example 94, 4-(4-((4′-chloro-1,1′-biphenyl-2-yl)methyl)piperazin-1-yl)-2-(4-(2-morpholin-4-ylethoxy)phenoxy)-N-((3-nitro-4-((tetrahydro-2H-pyran-4-ylmethyl)amino)phenyl)sulfonyl)benzamide], the affinity, expressed as Ki, was 561 nM.

`O=C1CCc2c(cccc2Oc2cc(N3CCN(Cc4ccccc4-c4ccc(Cl)cc4)CC3)ccc2C(=O)NS(=O)(=O)c2ccc(NCC3CCOCC3)c([N+](=O)[O-])c2)N1` [Example 95, 4-(4-((4′-chloro-1,1′-biphenyl-2-yl)methyl)piperazin-1-yl)-N-((3-nitro-4-((tetrahydro-2H-pyran-4-ylmethyl)amino)phenyl)sulfonyl)-2-((2-oxo-1,2,3,4-tetrahydroquinolin-5-yl)oxy)benzamide] returned an inhibition constant (Ki) of 0.428 nM. The result for `O=C(NS(=O)(=O)c1ccc(NCCCN2CCOCC2)c([N+](=O)[O-])c1)c1ccc(N2CCN(Cc3ccccc3-c3ccc(Cl)cc3)CC2)cc1Oc1ccc(OCc2ccccc2)cc1` [Example 96, 2-(4-(benzyloxy)phenoxy)-4-(4-((4′-chloro-1,1′-biphenyl-2-yl)methyl)piperazin-1-yl)-N-((4-((3-morpholin-4-ylpropyl)amino)-3-nitrophenyl)sulfonyl)benzamide] reads more than 1200 nM; that for `CC(C)(C)OC(=O)N1CCN(c2ccc(Oc3cc(N4CCN(Cc5ccccc5-c5ccc(Cl)cc5)CC4)ccc3C(=O)NS(=O)(=O)c3ccc(NCCCN4CCOCC4)c([N+](=O)[O-])c3)cc2)CC1` [Example 97, tert-butyl 4-(4-(5-(4-((4′-chloro-1,1′-biphenyl-2-yl)methyl)piperazin-1-yl)-2-((((4-((3-morpholin-4-ylpropyl)amino)-3-nitrophenyl)sulfonyl)amino)carbonyl)phenoxy)phenyl)piperazine-1-carboxylate], 147 nM.

`O=C(NS(=O)(=O)c1ccc(NCCCN2CCOCC2)c([N+](=O)[O-])c1)c1ccc(N2CCN(Cc3ccccc3-c3ccc(Cl)cc3)CC2)cc1Oc1cccc(-c2ccncc2)c1` [Example 98, 4-(4-((4′-chloro-1,1′-biphenyl-2-yl)methyl)piperazin-1-yl)-N-((4-((3-morpholin-4-ylpropyl)amino)-3-nitrophenyl)sulfonyl)-2-(3-pyridin-4-ylphenoxy)benzamide] came in with a Ki of 0.959 nM. `O=C(NS(=O)(=O)c1ccc(NCCCN2CCOCC2)c([N+](=O)[O-])c1)c1ccc(N2CCN(Cc3ccccc3-c3ccc(Cl)cc3)CC2)cc1Oc1ccc(-c2ccncc2)cc1` [Example 99, 4-(4-((4′-chloro-1,1′-biphenyl-2-yl)methyl)piperazin-1-yl)-N-((4-((3-morpholin-4-ylpropyl)amino)-3-nitrophenyl)sulfonyl)-2-(4-pyridin-4-ylphenoxy)benzamide] came in with a Ki of 71.4 nM. The molecule `O=C(NS(=O)(=O)c1ccc(NCCCN2CCOCC2)c([N+](=O)[O-])c1)c1ccc(N2CCN(Cc3ccccc3-c3ccc(Cl)cc3)CC2)cc1Oc1ccc(-c2cccnc2)cc1` [Example 100, 4-(4-((4′-chloro-1,1′-biphenyl-2-yl)methyl)piperazin-1-yl)-N-((4-((3-morpholin-4-ylpropyl)amino)-3-nitrophenyl)sulfonyl)-2-(4-pyridin-3-ylphenoxy)benzamide] returned a Ki of 113 nM. To `CN(C)C(=O)COc1ccc(Oc2cc(N3CCN(Cc4ccccc4-c4ccc(Cl)cc4)CC3)ccc2C(=O)NS(=O)(=O)c2ccc(NCC3CCOCC3)c([N+](=O)[O-])c2)cc1` [Example 101, 4-(4-((4′-chloro-1,1′-biphenyl-2-yl)methyl)piperazin-1-yl)-2-(4-(2-(dimethylamino)-2-oxoethoxy)phenoxy)-N-((3-nitro-4-((tetrahydro-2H-pyran-4-ylmethyl)amino)phenyl)sulfonyl)benzamide] belongs 670 nM; to `Cn1cnc2cc(Oc3cc(N4CCN(Cc5ccccc5-c5ccc(Cl)cc5)CC4)ccc3C(=O)NS(=O)(=O)c3ccc(NCCCN4CCOCC4)c([N+](=O)[O-])c3)ccc21` [Example 102, 4-(4-((4′-chloro-1,1′-biphenyl-2-yl)methyl)piperazin-1-yl)-2-((1-methyl-1H-benzimidazol-5-yl)oxy)-N-((4-((3-morpholin-4-ylpropyl)amino)-3-nitrophenyl)sulfonyl)benzamide], 43.5 nM.

In turn, `CNC(=O)c1cccc(Oc2cc(N3CCN(Cc4ccccc4-c4ccc(Cl)cc4)CC3)ccc2C(=O)NS(=O)(=O)c2ccc(NCCCN3CCOCC3)c([N+](=O)[O-])c2)c1` [Example 103, 4-(4-((4′-chlorobiphenyl-2-yl)methyl)piperazin-1-yl)-2-(3-(methylcarbamoyl)phenoxy)-N-(4-(3-morpholinopropylamino)-3-nitrophenylsulfonyl)benzamide] gave a Ki of 6.75 nM. For the molecule `CNC(=O)c1cccc(Oc2cc(N3CCN(Cc4ccccc4-c4ccc(Cl)cc4)CC3)ccc2C(=O)NS(=O)(=O)c2ccc(NCCCN(C)C)c([N+](=O)[O-])c2)c1` [Example 104, 4-(4-((4′-chlorobiphenyl-2-yl)methyl)piperazin-1-yl)-N-(4-(3-(dimethylamino)propylamino)-3-nitrophenylsulfonyl)-2-(3-(methylcarbamoyl)phenoxy)benzamide], the Ki was determined as 2.32 nM.

The molecule `CN(C)C(=O)COc1cccc(Oc2cc(N3CCN(Cc4ccccc4-c4ccc(Cl)cc4)CC3)ccc2C(=O)NS(=O)(=O)c2ccc(NCC3CCOCC3)c([N+](=O)[O-])c2)c1` [Example 105, 4-(4-((4′-chloro-1,1′-biphenyl-2-yl)methyl)piperazin-1-yl)-2-(3-(2-(dimethylamino)-2-oxoethoxy)phenoxy)-N-((3-nitro-4-((tetrahydro-2H-pyran-4-ylmethyl)amino)phenyl)sulfonyl)benzamide] yielded a Ki of 3.57 nM. To `CN(C)CCCc1c[nH]c2ccc(Oc3cc(N4CCN(Cc5ccccc5-c5ccc(Cl)cc5)CC4)ccc3C(=O)NS(=O)(=O)c3ccc(NCC4CCOCC4)c([N+](=O)[O-])c3)cc12` [Example 106, 4-(4-((4′-chloro-1,1′-biphenyl-2-yl)methyl)piperazin-1-yl)-2-((3-(3-(dimethylamino)propyl)-1H-indol-5-yl)oxy)-N-((3-nitro-4-((tetrahydro-2H-pyran-4-ylmethyl)amino)phenyl)sulfonyl)benzamide] belongs 215 nM; to `CN(C)CCCNc1ccc(S(=O)(=O)NC(=O)c2ccc(N3CCN(Cc4ccccc4-c4ccc(Cl)cc4)CC3)cc2Oc2cccc(CO)c2)cc1[N+](=O)[O-]` [Example 107, 4-(4-((4′-chloro-1,1′-biphenyl-2-yl)methyl)piperazin-1-yl)-N-((4-((3-(dimethylamino)propyl)amino)-3-nitrophenyl)sulfonyl)-2-(3-(hydroxymethyl)phenoxy)benzamide], 0.331 nM.

For orientation: Ki means the dissociation constant of the complex between target and ligand, obtained from inhibition or displacement. High values mean a looser hold on the target, low ones a stronger hold on the target.
